ChEMBL document CHEMBL2331077, “Sacchathridine A, a prostaglandin release inhibitor from Saccharothrix sp” (J Nat Prod, 2013)
Active and inactive are the calls of the source. The rule behind the calls is not given here.

Tests used:
SW982 [1] = assay: Growth inhibition of human SW982 cells up to 30 uM after 48 hrs by cell counting; assay type: functional, cell-based
SW982 [2] = assay: Inhibition of PGE2 release from bradykinin-stimulated human SW982 cells by fluorescence assay; assay type: functional, cell-based

| Structure (SMILES) | growth inhibition (GI) (SW982 [1]) | IC50 (SW982 [2]) | inhibition (SW982 [2]) |
| --- | --- | --- | --- |
| COC1=C(C)C(=O)c2ccc(O[C@@H]3O[C@@H](C)[C@H](O)[C@@H](O)[C@H]3O)c(NNC(C)=O)c2C1=O [SACCHATHRIDINE A] | inactive | 1000 nM | Dose-dependent effect |
| CS(=O)(=O)c1ccc(-n2nc(C(F)(F)F)cc2-c2ccc(F)cc2)cc1 [SC-58125] |  | 33 nM |  |
